Tests used:
[1] = molecular target: Translocator protein (Rattus norvegicus) (UniProt P16257); experiment: BZD (peripheral) Eurofins-Cerep binding assay; parameters: ligand concentration 0.2 nM; settings: filed as antagonist, Compound concentration 10.0 uM
[2] = molecular target: Cholecystokinin receptor type A (Homo sapiens) (UniProt P32238); experiment: CCK1 (CCKA) (h) Eurofins-Cerep binding assay; parameters: ligand concentration 0.08 nM; settings: filed as agonist, Compound concentration 10.0 uM
Chain of Cholecystokinin receptor type A (Homo sapiens) (P32238 whole entry): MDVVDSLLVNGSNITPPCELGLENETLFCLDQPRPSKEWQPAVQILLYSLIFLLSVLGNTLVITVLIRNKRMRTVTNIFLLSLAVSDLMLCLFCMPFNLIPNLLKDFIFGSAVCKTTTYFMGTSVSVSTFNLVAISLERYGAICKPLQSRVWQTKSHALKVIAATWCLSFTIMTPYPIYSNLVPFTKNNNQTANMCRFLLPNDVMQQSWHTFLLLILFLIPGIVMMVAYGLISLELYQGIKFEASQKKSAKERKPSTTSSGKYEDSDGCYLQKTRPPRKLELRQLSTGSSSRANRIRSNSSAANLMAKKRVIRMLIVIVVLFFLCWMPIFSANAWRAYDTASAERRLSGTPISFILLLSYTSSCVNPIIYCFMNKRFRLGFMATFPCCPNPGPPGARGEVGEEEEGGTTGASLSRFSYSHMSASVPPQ

[3] = molecular target: Muscarinic acetylcholine receptor M1 (Homo sapiens) (UniProt P11229); experiment: M1 (h) Eurofins-Cerep binding assay; parameters: ligand concentration 2 nM; settings: filed as antagonist, Compound concentration 10.0 uM
[4] = molecular target: Substance-K receptor (Homo sapiens) (UniProt P21452); experiment: NK2 (h) Eurofins-Cerep binding assay; parameters: ligand concentration 0.1 nM; settings: filed as agonist, Compound concentration 10.0 uM
Chain of Substance-K receptor (Homo sapiens) (P21452 whole entry): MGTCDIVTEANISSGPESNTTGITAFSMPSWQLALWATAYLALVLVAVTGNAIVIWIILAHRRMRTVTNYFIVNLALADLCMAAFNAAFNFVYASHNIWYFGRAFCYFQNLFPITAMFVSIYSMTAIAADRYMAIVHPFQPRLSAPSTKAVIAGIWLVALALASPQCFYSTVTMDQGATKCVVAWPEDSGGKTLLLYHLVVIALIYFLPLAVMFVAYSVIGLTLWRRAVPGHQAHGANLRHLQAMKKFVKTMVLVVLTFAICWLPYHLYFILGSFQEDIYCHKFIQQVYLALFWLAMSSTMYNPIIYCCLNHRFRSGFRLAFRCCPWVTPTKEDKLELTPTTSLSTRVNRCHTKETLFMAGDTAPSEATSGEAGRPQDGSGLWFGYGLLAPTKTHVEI

[5] = molecular target: 5-hydroxytryptamine receptor 7 (Homo sapiens) (UniProt P34969); experiment: 5-HT7 (h) Eurofins-Cerep binding assay; parameters: ligand concentration 4 nM; settings: filed as agonist, Compound concentration 10.0 uM
Chain of 5-hydroxytryptamine receptor 7 (Homo sapiens) (P34969 whole entry): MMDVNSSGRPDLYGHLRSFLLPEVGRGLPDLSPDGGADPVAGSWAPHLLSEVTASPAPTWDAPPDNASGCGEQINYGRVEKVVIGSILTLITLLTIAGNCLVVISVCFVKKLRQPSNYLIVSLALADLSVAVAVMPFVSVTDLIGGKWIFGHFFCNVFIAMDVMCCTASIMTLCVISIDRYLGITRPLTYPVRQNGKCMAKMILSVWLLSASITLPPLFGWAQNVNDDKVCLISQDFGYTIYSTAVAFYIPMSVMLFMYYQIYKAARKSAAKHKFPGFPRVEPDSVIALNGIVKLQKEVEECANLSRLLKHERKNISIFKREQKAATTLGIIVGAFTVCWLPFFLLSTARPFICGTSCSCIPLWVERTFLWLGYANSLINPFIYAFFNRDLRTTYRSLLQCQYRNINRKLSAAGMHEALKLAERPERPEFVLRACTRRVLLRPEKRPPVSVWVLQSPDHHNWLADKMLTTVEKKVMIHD

[6] = molecular target: Urotensin-2 receptor (Homo sapiens) (UniProt Q9UKP6); experiment: UT (h) Eurofins-Cerep binding assay; parameters: ligand concentration 0.1 nM; settings: filed as agonist, Compound concentration 10.0 uM
Chain of Urotensin-2 receptor (Homo sapiens) (Q9UKP6 whole entry): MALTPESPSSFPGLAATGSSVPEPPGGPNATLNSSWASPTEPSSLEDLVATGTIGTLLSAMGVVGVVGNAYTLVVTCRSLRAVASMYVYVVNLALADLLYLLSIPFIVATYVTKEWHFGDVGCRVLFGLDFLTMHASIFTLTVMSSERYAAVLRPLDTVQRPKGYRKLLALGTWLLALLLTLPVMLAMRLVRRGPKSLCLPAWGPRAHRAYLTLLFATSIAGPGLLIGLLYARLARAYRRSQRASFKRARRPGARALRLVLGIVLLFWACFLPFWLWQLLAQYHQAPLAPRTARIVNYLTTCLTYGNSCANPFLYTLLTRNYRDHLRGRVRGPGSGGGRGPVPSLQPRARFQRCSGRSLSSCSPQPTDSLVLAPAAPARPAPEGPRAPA

[7] = molecular target: voltage-gated L-type Ca2+ channel (diltiazem site, benzothiazepines) (Rattus norvegicus, UniProt P22002+P27732+Q02485); experiment: Ca2+ channel (L, diltiazem site) (benzothiazepines) Eurofins-Cerep binding assay; parameters: incubation time 120 min, incubation temperature RT, ligand concentration 15 nM; settings: rat cerebral cortex (source of protein), probe [3H]diltiazem (15 nM), compound concentration 10 uM, read-out: % Inhibition of Control Specific Binding (Mean n=2)
[8] = system: Tyrosine-protein kinase ABL1 (Homo sapiens), P00519 [Q252H]; settings: Compound concentration 1000.0 nM
[9] = system: Tyrosine-protein kinase ABL1 (Homo sapiens), P00519 [Y253F]; settings: Compound concentration 1000.0 nM
[10] = molecular target: RAC-gamma serine/threonine-protein kinase (Homo sapiens) (UniProt Q9Y243); settings: Compound concentration 1000.0 nM
[11] = molecular target: NUAK family SNF1-like kinase 1 (Homo sapiens) (UniProt O60285); settings: Compound concentration 1000.0 nM
[12] = molecular target: Tyrosine-protein kinase receptor UFO (Homo sapiens) (UniProt P30530); settings: Compound concentration 1000.0 nM
[13] = molecular target: Protein-tyrosine kinase 6 (Homo sapiens) (UniProt Q13882); settings: Compound concentration 1000.0 nM
Chain of Protein-tyrosine kinase 6 (Homo sapiens) (Q13882 whole entry, looked up): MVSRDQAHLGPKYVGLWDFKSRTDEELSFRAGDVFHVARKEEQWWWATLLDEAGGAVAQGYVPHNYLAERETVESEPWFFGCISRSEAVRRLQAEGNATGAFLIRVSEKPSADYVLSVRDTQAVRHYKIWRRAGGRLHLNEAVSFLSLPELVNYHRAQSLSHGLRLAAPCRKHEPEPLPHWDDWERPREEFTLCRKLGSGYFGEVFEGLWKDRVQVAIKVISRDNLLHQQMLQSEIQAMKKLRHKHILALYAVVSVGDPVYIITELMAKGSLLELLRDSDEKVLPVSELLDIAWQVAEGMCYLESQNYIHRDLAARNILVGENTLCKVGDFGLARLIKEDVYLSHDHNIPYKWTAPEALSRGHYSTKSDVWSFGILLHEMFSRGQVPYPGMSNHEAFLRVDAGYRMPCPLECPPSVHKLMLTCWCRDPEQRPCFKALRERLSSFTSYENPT

[14] = molecular target: Calcium/calmodulin-dependent protein kinase type II subunit gamma (Homo sapiens) (UniProt Q13555); settings: Compound concentration 1000.0 nM
[15] = molecular target: Cyclin-dependent kinase 7 (Homo sapiens) (UniProt P50613); settings: Compound concentration 1000.0 nM
[16] = molecular target: Cyclin-dependent kinase 8 (Homo sapiens) (UniProt P49336); settings: Compound concentration 1000.0 nM
[17] = molecular target: Serine/threonine-protein kinase Chk1 (Homo sapiens) (UniProt O14757); settings: Compound concentration 1000.0 nM
[18] = molecular target: Serine/threonine-protein kinase DCLK1 (Homo sapiens) (UniProt O15075); settings: Compound concentration 1000.0 nM
[19] = molecular target: Ephrin type-B receptor 1 (Homo sapiens) (UniProt P54762); settings: Compound concentration 1000.0 nM
[20] = molecular target: Mitogen-activated protein kinase 1 (Homo sapiens) (UniProt P28482); settings: Compound concentration 1000.0 nM
[21] = molecular target: Fibroblast growth factor receptor 2 (Homo sapiens) (UniProt P21802); settings: Compound concentration 1000.0 nM
[22] = molecular target: Tyrosine-protein kinase Fgr (Homo sapiens) (UniProt P09769); settings: Compound concentration 1000.0 nM
[23] = system: Receptor-type tyrosine-protein kinase FLT3 (Homo sapiens), P36888 [D835Y]; settings: Compound concentration 1000.0 nM
[24] = system: Receptor-type tyrosine-protein kinase FLT3 (Homo sapiens), P36888 [R834Q]; settings: Compound concentration 1000.0 nM
[25] = molecular target: Tyrosine-protein kinase Fyn (Homo sapiens) (UniProt P06241); settings: Compound concentration 1000.0 nM
[26] = molecular target: Inhibitor of nuclear factor kappa-B kinase subunit epsilon (Homo sapiens) (UniProt Q14164); settings: Compound concentration 1000.0 nM
[27] = molecular target: Serine/threonine-protein kinase LATS2 (Homo sapiens) (UniProt Q9NRM7); settings: Compound concentration 1000.0 nM
[28] = molecular target: Maternal embryonic leucine zipper kinase (Homo sapiens) (UniProt Q14680); settings: Compound concentration 1000.0 nM
[29] = molecular target: Hepatocyte growth factor receptor (Homo sapiens) (UniProt P08581); settings: Compound concentration 1000.0 nM
[30] = molecular target: Macrophage-stimulating protein receptor (Homo sapiens) (UniProt Q04912); settings: Compound concentration 1000.0 nM
[31] = molecular target: Serine/threonine-protein kinase 3 (Homo sapiens) (UniProt Q13188); settings: Compound concentration 1000.0 nM
[32] = molecular target: Serine/threonine-protein kinase 38-like (Homo sapiens) (UniProt Q9Y2H1); settings: Compound concentration 1000.0 nM
[33] = molecular target: Serine/threonine-protein kinase Nek2 (Homo sapiens) (UniProt P51955); settings: Compound concentration 1000.0 nM
Chain of Serine/threonine-protein kinase Nek2 (Homo sapiens) (P51955 whole entry): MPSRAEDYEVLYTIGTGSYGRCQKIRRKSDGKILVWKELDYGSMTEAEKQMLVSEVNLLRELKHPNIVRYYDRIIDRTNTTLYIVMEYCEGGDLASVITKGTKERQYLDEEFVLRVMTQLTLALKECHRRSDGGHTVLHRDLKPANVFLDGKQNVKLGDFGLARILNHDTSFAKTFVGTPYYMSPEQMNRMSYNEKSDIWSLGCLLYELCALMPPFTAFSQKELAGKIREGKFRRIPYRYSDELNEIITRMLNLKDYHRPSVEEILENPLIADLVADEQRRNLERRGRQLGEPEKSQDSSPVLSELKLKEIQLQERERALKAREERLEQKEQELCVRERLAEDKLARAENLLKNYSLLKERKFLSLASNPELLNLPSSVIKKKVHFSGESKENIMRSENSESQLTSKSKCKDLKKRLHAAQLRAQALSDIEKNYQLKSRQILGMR

[34] = molecular target: Cyclin-dependent kinase 18 (Homo sapiens) (UniProt Q07002); settings: Compound concentration 1000.0 nM
[35] = molecular target: 3-phosphoinositide-dependent protein kinase 1 (Homo sapiens) (UniProt O15530); settings: Compound concentration 1000.0 nM
[36] = system: Phosphatidylinositol 4,5-bisphosphate 3-kinase catalytic subunit alpha isoform (Homo sapiens), P42336 [H1047L]; settings: Compound concentration 1000.0 nM
Chain of Phosphatidylinositol 4,5-bisphosphate 3-kinase catalytic subunit alpha isoform (Homo sapiens), P42336 [H1047L] (P42336 whole entry H1047L, canonical isoform): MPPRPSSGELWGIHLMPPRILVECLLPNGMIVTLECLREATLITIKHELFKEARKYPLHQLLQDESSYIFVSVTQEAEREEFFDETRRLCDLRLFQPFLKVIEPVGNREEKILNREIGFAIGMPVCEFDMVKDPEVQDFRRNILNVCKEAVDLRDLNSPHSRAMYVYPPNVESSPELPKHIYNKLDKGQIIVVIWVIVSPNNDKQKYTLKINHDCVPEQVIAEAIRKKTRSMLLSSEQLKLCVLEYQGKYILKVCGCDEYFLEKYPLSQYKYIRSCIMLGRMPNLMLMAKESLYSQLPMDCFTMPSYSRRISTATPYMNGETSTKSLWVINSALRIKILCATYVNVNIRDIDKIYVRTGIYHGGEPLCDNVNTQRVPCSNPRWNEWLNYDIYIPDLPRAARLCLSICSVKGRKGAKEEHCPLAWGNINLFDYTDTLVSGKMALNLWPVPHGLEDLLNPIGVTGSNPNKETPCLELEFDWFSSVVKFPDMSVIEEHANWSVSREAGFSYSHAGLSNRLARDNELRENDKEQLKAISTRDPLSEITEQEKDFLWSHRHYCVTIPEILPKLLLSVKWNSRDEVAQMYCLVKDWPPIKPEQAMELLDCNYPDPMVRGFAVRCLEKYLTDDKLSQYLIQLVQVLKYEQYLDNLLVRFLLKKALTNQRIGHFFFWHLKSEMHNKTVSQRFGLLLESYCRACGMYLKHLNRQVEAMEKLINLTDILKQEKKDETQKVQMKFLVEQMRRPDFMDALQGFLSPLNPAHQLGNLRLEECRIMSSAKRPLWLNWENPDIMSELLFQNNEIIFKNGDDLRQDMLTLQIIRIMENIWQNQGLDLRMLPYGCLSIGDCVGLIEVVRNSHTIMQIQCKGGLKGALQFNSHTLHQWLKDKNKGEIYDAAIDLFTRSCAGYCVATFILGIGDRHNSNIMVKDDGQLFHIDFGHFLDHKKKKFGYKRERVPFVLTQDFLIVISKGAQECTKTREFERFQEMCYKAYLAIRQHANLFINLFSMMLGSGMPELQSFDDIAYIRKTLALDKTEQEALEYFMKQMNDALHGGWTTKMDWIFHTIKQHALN

[37] = system: Phosphatidylinositol 4,5-bisphosphate 3-kinase catalytic subunit alpha isoform (Homo sapiens), P42336 [Q546K]; settings: Compound concentration 1000.0 nM
[38] = molecular target: Membrane-associated tyrosine- and threonine-specific cdc2-inhibitory kinase (Homo sapiens) (UniProt Q99640); settings: Compound concentration 1000.0 nM
Chain of Membrane-associated tyrosine- and threonine-specific cdc2-inhibitory kinase (Homo sapiens) (Q99640 whole entry): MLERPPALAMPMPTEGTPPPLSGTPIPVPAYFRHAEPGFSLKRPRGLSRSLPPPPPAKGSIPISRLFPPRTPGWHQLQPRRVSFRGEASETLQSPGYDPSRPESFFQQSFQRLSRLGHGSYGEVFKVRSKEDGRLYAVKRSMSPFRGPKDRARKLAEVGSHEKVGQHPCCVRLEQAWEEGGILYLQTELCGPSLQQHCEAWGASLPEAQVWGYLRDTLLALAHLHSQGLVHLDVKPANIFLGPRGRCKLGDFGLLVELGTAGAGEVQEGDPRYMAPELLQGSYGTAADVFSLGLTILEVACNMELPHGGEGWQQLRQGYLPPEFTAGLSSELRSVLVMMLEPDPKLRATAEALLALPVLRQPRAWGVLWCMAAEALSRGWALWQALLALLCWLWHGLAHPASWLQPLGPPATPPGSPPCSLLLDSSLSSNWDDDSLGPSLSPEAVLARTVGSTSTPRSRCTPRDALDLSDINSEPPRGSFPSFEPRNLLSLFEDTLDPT

[39] = molecular target: Serine/threonine-protein kinase D2 (Homo sapiens) (UniProt Q9BZL6); settings: Compound concentration 1000.0 nM
[40] = molecular target: Interferon-induced, double-stranded RNA-activated protein kinase (Homo sapiens) (UniProt P19525); settings: Compound concentration 1000.0 nM
[41] = molecular target: Ribosomal protein S6 kinase alpha-3 (Homo sapiens) (UniProt P51812); settings: Compound concentration 1000.0 nM
Chain of Ribosomal protein S6 kinase alpha-3 (Homo sapiens) (P51812 whole entry): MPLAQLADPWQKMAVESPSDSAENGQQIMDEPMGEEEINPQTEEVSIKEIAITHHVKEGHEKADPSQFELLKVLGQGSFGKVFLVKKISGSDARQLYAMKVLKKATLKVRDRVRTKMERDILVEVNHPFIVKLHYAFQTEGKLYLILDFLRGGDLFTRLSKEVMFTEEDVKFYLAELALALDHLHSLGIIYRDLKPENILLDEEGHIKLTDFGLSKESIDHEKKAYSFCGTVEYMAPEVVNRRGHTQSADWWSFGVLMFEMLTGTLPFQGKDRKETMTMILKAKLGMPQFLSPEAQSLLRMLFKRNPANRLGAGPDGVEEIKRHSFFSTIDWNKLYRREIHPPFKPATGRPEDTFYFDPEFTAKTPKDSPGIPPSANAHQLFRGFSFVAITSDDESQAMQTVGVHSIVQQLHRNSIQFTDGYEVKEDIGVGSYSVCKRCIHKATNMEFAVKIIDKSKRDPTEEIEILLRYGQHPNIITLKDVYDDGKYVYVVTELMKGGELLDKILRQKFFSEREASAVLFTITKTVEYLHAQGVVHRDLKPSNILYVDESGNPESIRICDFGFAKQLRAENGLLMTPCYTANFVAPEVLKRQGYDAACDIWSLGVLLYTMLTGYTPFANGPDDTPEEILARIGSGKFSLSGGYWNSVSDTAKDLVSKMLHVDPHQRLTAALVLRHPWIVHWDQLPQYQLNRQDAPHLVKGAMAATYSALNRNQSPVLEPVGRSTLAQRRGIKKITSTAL

[42] = molecular target: Tyrosine-protein kinase receptor Tie-1 (Homo sapiens) (UniProt P35590); settings: Compound concentration 1000.0 nM
[43] = molecular target: Vascular endothelial growth factor receptor 2 (Homo sapiens) (UniProt P35968); settings: Compound concentration 1000.0 nM
[44] = molecular target: Wee1-like protein kinase 2 (Homo sapiens) (UniProt P0C1S8); settings: Compound concentration 1000.0 nM

In the case of `CCCOc1ccc([C@H]2[C@H](C(=O)O)[C@@H](c3ccc4c(c3)OCO4)CN2CC(=O)Nc2c(CC)cccc2CC)cc1` [A-192621], the % Inhibition of Control Specific Binding (Mean n=2) [1] was 72.1%, the % Inhibition of Control Specific Binding (Mean n=2) [2] was 63.1% and the % Inhibition of Control Specific Binding (Mean n=2) [3] was -11.2%. The % Inhibition of Control Specific Binding (Mean n=2) [4] was 18.3%, the % Inhibition of Control Specific Binding (Mean n=2) [5] was 1.9% and the % Inhibition of Control Specific Binding (Mean n=2) [6] was 23.9%. The inhibition at 120 min, 10 µM [7] was 4.2%, the residual activity [8] was 86% and the residual activity [9] was 75%. For the same compound, the residual activity [10] was 82%, the residual activity [11] was 83% and the residual activity [12] was 83%. For the same compound, the residual activity [13] was 84%, the residual activity [14] was 95% and the residual activity [15] was 78%. For the same compound, the residual activity [16] was 76%, the residual activity [17] was 98% and the residual activity [18] was 75%. It also gave a residual activity [19] of 100%, a residual activity [20] of 100% and a residual activity [21] of 100%. It also gave a residual activity [22] of 98%, a residual activity [23] of 100% and a residual activity [24] of 91%. It also gave a residual activity [25] of 100%, a residual activity [26] of 68% and a residual activity [27] of 97%. The residual activity [28] was 65%, the residual activity [29] was 100% and the residual activity [30] was 86%. For the same compound, the residual activity [31] was 96%, the residual activity [32] was 88% and the residual activity [33] was 90%. The residual activity [34] was 100%, the residual activity [35] was 100% and the residual activity [36] was 85%. It also gave a residual activity [37] of 69%, a residual activity [38] of 74% and a residual activity [39] of 84%. For the same compound, the residual activity [40] was 100%, the residual activity [41] was 73% and the residual activity [42] was 94%. The residual activity [43] was 77% and the residual activity [44] was 85%.
Work on `CCCOc1ccc([C@@H]2[C@@H](C(=O)O)[C@H](c3ccc4c(c3)OCO4)CN2CC(=O)Nc2c(CC)cccc2CC)cc1` [A-1806262] yielded a % Inhibition of Control Specific Binding (Mean n=2) [1] of 54.7%, a % Inhibition of Control Specific Binding (Mean n=2) [2] of 75.9% and a % Inhibition of Control Specific Binding (Mean n=2) [3] of 3.7%. It also gave a % Inhibition of Control Specific Binding (Mean n=2) [4] of -3%, a % Inhibition of Control Specific Binding (Mean n=2) [5] of 0.4% and a % Inhibition of Control Specific Binding (Mean n=2) [6] of 9.4%. The inhibition at 120 min, 10 µM [7] was 15.4%, the residual activity [8] was 99% and the residual activity [9] was 87%. For the same compound, the residual activity [10] was 100%, the residual activity [11] was 99% and the residual activity [12] was 93%. The residual activity [13] was 83%, the residual activity [14] was 88% and the residual activity [15] was 86%. It also gave a residual activity [16] of 86%, a residual activity [17] of 86% and a residual activity [18] of 80%. The residual activity [19] was 91%, the residual activity [20] was 100% and the residual activity [21] was 100%. For the same compound, the residual activity [22] was 93%, the residual activity [23] was 100% and the residual activity [24] was 100%. It also gave a residual activity [25] of 87%, a residual activity [26] of 85% and a residual activity [27] of 100%. It also gave a residual activity [28] of 84%, a residual activity [29] of 92% and a residual activity [30] of 91%. The residual activity [31] was 100%, the residual activity [32] was 100% and the residual activity [33] was 97%. The residual activity [34] was 100%, the residual activity [35] was 100% and the residual activity [36] was 83%. The residual activity [37] was 80%, the residual activity [38] was 100% and the residual activity [39] was 100%. It also gave a residual activity [40] of 100%, a residual activity [41] of 76% and a residual activity [42] of 96%. The residual activity [43] was 72% and the residual activity [44] was 87%.
